# Legend:
# pigweed = assay: Test B pre/postemergence pigweed; format: in vivo, Amaranthus retroflexus
# Outline: (§1)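 Response is a visual 0-to-10 score relative to untreated plants, where 0 means no effect and 10 means complete control, taken twelve to sixteen days after application. Treatments went onto soil at planting and onto foliage of 1- to 4-leaf plants, using a surfactant-containing non-phytotoxic solvent.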
# giant foxtail = assay: Test B pre/postemergence giant foxtail; format: in vivo, Setaria faberii
# Outline: as §1
# wheat = assay: Test B pre/postemergence wheat; format: in vivo, Triticum aestivum; conditions: for Plant response rating, Wheat: Rate 250 g/ha
# Outline: as §1
# cocklebur = assay: Test B pre/postemergence cocklebur; format: in vivo, Xanthium strumarium
# Outline: as §1
# duck salad = assay: Test B flood test duck salad; format: in vivo, Heteranthera limosa
# Outline: (§2)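 Plants were grown to the 2-leaf stage before treatment with test chemical, then held in a greenhouse for twelve to sixteen days. Injury was visually rated against untreated controls on a 0–10 scale, where 0 is no effect and 10 is complete control.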
# velvetleaf = assay: Test B pre/postemergence velvetleaf; format: in vivo, Abutilon theophrasti; conditions: for Plant response rating, Velvetleaf: Rate 250 g/ha
# Outline: as §1
# crabgrass = assay: Test B pre/postemergence crabgrass; format: in vivo, Digitaria sanguinalis
# Outline: as §1
# rice = assay: Test B flood test rice; format: in vivo, Oryza sativa
# Outline: as §2
# purple nutsedge = assay: Test B pre/postemergence purple nutsedge; format: in vivo, Cyperus rotundus
# Outline: as §1
# bamyardgrass = assay: Test B flood test barnyardgrass; format: in vivo, Echinochloa crus-galli
# Outline: as §2
# morningglory = assay: Test B pre/postemergence morningglory; format: in vivo, Ipomoea hederacea
# Outline: as §1
# soybean = assay: Test B pre/postemergence soybean; format: in vivo, Glycine max
# Outline: as §1
# rape = assay: Test B pre/postemergence rape; format: in vivo, Brassica napus
# Outline: as §1
# sugar beet = assay: Test B pre/postemergence sugar beet; format: in vivo, Beta vulgaris; conditions: for Plant response rating, Sugarbeets: Rate 250 g/ha
# Outline: as §1
# wild oat = assay: Test B pre/postemergence wild oat; format: in vivo, Avena fatua; conditions: for Plant response rating, Wild oats: Rate 250 g/ha
# Outline: as §1
# corn = assay: Test B pre/postemergence corn; format: in vivo, Zea mays
# Outline: as §1
# [1] = Postemergence, Rate 125 g/ha, scale of 0 to 10 where 0 is no effect and 10 is complete control
# [2] = Preemergence, Rate 62 g/ha, scale 0 to 10 (0 no effect, 10 complete control)
# [3] = Preemergence, Rate 125 g/ha, scale 0 to 10 (0 no effect, 10 complete control)
# [4] = Preemergence, Rate 250 g/ha, scale of 0 to 10 where 0 is no effect and 10 is complete control
# [5] = Preemergence, Rate 500 g/ha, scale 0 to 10 (0 no effect, 10 complete control)
# [6] = Rate 62 g/ha, Postemergence, scale of 0 to 10 where 0 is no effect and 10 is complete control
# [7] = Rate 250 g/ha, Postemergence, scale 0 to 10, 0 is no effect, 10 is complete control
# [8] = Rate 500 g/ha, Postemergence, scale 0 to 10, 0 no effect, 10 complete control
# [9] = Postemergence, Rate 250 g/ha, scale 0 to 10, 0 no effect, 10 complete control
# [10] = Preemergence, Rate 125 g/ha, 0 is no effect, 10 is complete control
# [11] = Preemergence, scale of 0 to 10 where 0 is no effect and 10 is complete control
# [12] = Postemergence, scale 0 to 10, 0 is no effect, 10 is complete control
# [13] = Rate 250 g/ha, headed Pre-emergence (flood test species), scale 0 to 10 (0 no effect, 10 complete control)
# [14] = Rate 500 g/ha, headed Pre-emergence (flood test species), scale 0 to 10 (0 no effect, 10 complete control)
# [15] = Rate 1000 g/ha, Pre-emergence (as headed), scale 0 to 10
# [16] = Rate 2000 g/ha, Pre-emergence (as headed), scale 0 to 10
structure (smiles),measurement,setting,value
CCCn1c(=O)on(C(=O)N(c2ccc(Cl)cc2)C(C)C)c1=O [Compound 119],Redroot pigweed plant response rating,pigweed; [1],0
same,Redroot pigweed plant response rating,pigweed; [2],10
same,"Plant response rating, Redroot pigweed",pigweed; [3],10
same,"Plant response rating, Redroot pigweed",pigweed; [4],10
same,Redroot pigweed plant response rating,pigweed; [5],10
same,Redroot pigweed plant response rating,pigweed; [6],0
same,"Plant response rating, Redroot pigweed",pigweed; [7],2
same,Redroot pigweed plant response rating,pigweed; [8],6
same,Giant foxtail plant response rating,giant foxtail; [1],8
same,Giant foxtail plant response rating,giant foxtail; [9],8
same,Giant foxtail plant response rating,giant foxtail; [2],9
same,"Plant response rating, Giant foxtail",giant foxtail; [3],10
same,"Plant response rating, Giant foxtail",giant foxtail; [4],10
same,Giant foxtail plant response rating,giant foxtail; [5],10
same,Giant foxtail plant response rating,giant foxtail; [6],8
same,Giant foxtail plant response rating,giant foxtail; [8],8
same,Wheat plant response rating,wheat; [1],0
same,Wheat plant response rating,wheat; [2],0
same,Wheat plant response rating (0 to 10 scale),wheat; [10],0
same,"Plant response rating, Wheat",wheat; [11],3
same,Wheat plant response rating,wheat; [5],5
same,Wheat plant response rating,wheat; [6],0
same,"Plant response rating, Wheat",wheat; [12],3
same,Wheat plant response rating,wheat; [8],3
same,Cocklebur plant response rating,cocklebur; [1],0
same,Cocklebur plant response rating,cocklebur; [9],0
same,Cocklebur plant response rating,cocklebur; [2],0
same,"Plant response rating, Cocklebur",cocklebur; [3],0
same,"Plant response rating, Cocklebur",cocklebur; [4],0
same,Cocklebur plant response rating,cocklebur; [6],0
same,Cocklebur plant response rating,cocklebur; [8],0
same,Ducksalad plant response rating,duck salad; [13],0
same,"Plant response rating, Ducksalad",duck salad; [14],0
same,Ducksalad plant response rating,duck salad; [15],0
same,Ducksalad plant response rating,duck salad; [16],0
same,Velvetleaf plant response rating,velvetleaf; [1],2
same,Velvetleaf plant response rating,velvetleaf; [2],0
same,Velvetleaf plant response rating (0 to 10 scale),velvetleaf; [10],4
same,"Plant response rating, Velvetleaf",velvetleaf; [11],5
same,Velvetleaf plant response rating,velvetleaf; [5],6
same,Velvetleaf plant response rating,velvetleaf; [6],0
same,"Plant response rating, Velvetleaf",velvetleaf; [12],3
same,Velvetleaf plant response rating,velvetleaf; [8],3
same,Crabgrass plant response rating,crabgrass; [1],3
same,Crabgrass plant response rating,crabgrass; [9],8
same,Crabgrass plant response rating,crabgrass; [2],7
same,"Plant response rating, Crabgrass",crabgrass; [4],8
same,Crabgrass plant response rating,crabgrass; [5],10
same,Crabgrass plant response rating,crabgrass; [6],2
same,Crabgrass plant response rating,crabgrass; [8],8
same,"Plant response rating, Rice","rice; Rate 250 g/ha, Postemergence (flood test), scale 0 to 10, 0 is no effect, 10 is complete control",0
same,Rice plant response rating,rice; [13],0
same,"Plant response rating, Rice",rice; [14],0
same,Rice plant response rating,"rice; Rate 500 g/ha, listed under Postemergence (flood test species), scale 0 to 10, 0 no effect, 10 complete control",0
same,Rice plant response rating,rice; [15],0
same,Rice plant response rating,rice; [16],0
same,Nutsedge plant response rating,purple nutsedge; [1],0
same,Nutsedge plant response rating,purple nutsedge; [9],0
same,Nutsedge plant response rating,purple nutsedge; [2],0
same,"Plant response rating, Nutsedge",purple nutsedge; [3],0
same,"Plant response rating, Nutsedge",purple nutsedge; [4],0
same,Nutsedge plant response rating,purple nutsedge; [5],6
same,Nutsedge plant response rating,purple nutsedge; [6],0
same,Nutsedge plant response rating,purple nutsedge; [8],0
same,Barnyardgrass plant response rating,bamyardgrass; [13],0
same,"Plant response rating, Barnyardgrass",bamyardgrass; [14],0
same,Barnyardgrass plant response rating,bamyardgrass; [15],0
same,Barnyardgrass plant response rating,"bamyardgrass; Rate 2000 g/ha, Pre-emergence (as headed), scale 0 to 10, 0 no effect, 10 complete control",0
same,Morningglory plant response rating,morningglory; [1],7
same,Morningglory plant response rating,morningglory; [9],7
same,Morningglory plant response rating,morningglory; [2],0
same,"Plant response rating, Morningglory",morningglory; [3],2
same,"Plant response rating, Morningglory",morningglory; [4],2
same,Morningglory plant response rating,morningglory; [5],5
same,Morningglory plant response rating,morningglory; [6],3
same,Morningglory plant response rating,morningglory; [8],8
same,Soybean plant response rating,soybean; [1],2
same,Soybean plant response rating,soybean; [2],0
same,"Plant response rating, Soybean",soybean; [3],0
same,"Plant response rating, Soybean",soybean; [4],0
same,Soybean plant response rating,soybean; [5],0
same,Soybean plant response rating,soybean; [6],1
same,"Plant response rating, Soybean",soybean; [7],4
same,Soybean plant response rating,soybean; [8],6
same,Rape plant response rating,rape; [1],0
same,Rape plant response rating,rape; [9],2
same,Rape plant response rating,rape; [2],4
same,"Plant response rating, Rape",rape; [3],6
same,"Plant response rating, Rape",rape; [4],7
same,Rape plant response rating,rape; [5],9
same,Rape plant response rating,rape; [6],0
same,Rape plant response rating,rape; [8],4
same,Sugarbeets plant response rating,sugar beet; [1],0
same,Sugarbeets plant response rating,sugar beet; [2],3
same,Sugarbeets plant response rating (0 to 10 scale),sugar beet; [10],4
same,"Plant response rating, Sugarbeets",sugar beet; [11],8
same,Sugarbeets plant response rating,sugar beet; [5],8
same,Sugarbeets plant response rating,sugar beet; [6],0
same,"Plant response rating, Sugarbeets",sugar beet; [12],0
same,Sugarbeets plant response rating,sugar beet; [8],4
same,Wild oats plant response rating,wild oat; [1],0
same,Wild oats plant response rating,wild oat; [2],5
same,Wild oats plant response rating (0 to 10 scale),wild oat; [10],6
same,"Plant response rating, Wild oats",wild oat; [11],6
same,Wild oats plant response rating,wild oat; [5],9
same,Wild oats plant response rating,wild oat; [6],0
same,"Plant response rating, Wild oats",wild oat; [12],3
same,Wild oats plant response rating,wild oat; [8],6
same,Corn plant response rating,corn; [1],0
same,Corn plant response rating,corn; [9],0
same,Corn plant response rating,corn; [2],0
same,"Plant response rating, Corn",corn; [3],0
same,"Plant response rating, Corn",corn; [4],0
same,Corn plant response rating,corn; [5],2
same,Corn plant response rating,corn; [6],0
same,Corn plant response rating,corn; [8],0
